Results from patent US20020137929A1, “1 - (3-heterocyclylphenyl) isothiourea, -isourea, -guanidine and -amidine herbicidal agents” (Intellectual Property Department, BASF Aktiengesellschaft, priority 1998, published 2002).

Key:
AMBEL (Ragweed, Common) = assay: Postemergence herbicidal evaluation; format: in vivo, Ambrosia artemisifolia
In short: (§1)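 Visual 0-9 injury score (stand, vigor, malformation, size, chlorosis, appearance vs untreated) taken four to five weeks post-spray, averaged across repeat tests. Test plants about two weeks old; foliar spray of acetone/water (1:1) with 0.5% surfactant delivering ~0.0156-0.500 kg active/ha.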

CASOB (Sicklepod) [1] = assay: Postemergence herbicidal evaluation; format: in vivo, Cassia obtusifolia
In short: as §1

[2] = system: CHEAL (Lambsquarters, Common); assay: Postemergence herbicidal evaluation; format: in vivo, Chenopodium album
In short: as §1

GALAP (Galium) [3] = assay: Postemergence herbicidal evaluation; format: in vivo, Galium aparine
In short: as §1

ECHCG (Barnyardgrass) = assay: Postemergence herbicidal evaluation; format: in vivo, Echinochloa crus-galli
In short: as §1

SETVI (Foxtail, Green) = assay: Postemergence herbicidal evaluation; format: in vivo, Setaria viridis
In short: as §1

[4] = system: GLXMAW (Soybean, Williams); assay: Postemergence herbicidal evaluation; format: in vivo, Glycine max, (L.) Merr. cv Williams
In short: as §1

ORYSAT (Rice, Tebonnet) = assay: Postemergence herbicidal evaluation; format: in vivo, Oryza sativa, (L.) Tebonnet
In short: as §1

CASOB (Sicklepod) [5] = assay: Preemergence herbicidal evaluation; format: in vivo, Cassia obtusifolia; settings: rated 4-5 weeks after treatment
In short: (§2)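 Each species is sown separately in potting soil over roughly an inch of soil before any emergence. The soil surface then receives an aqueous acetone spray delivering about 0.0156 to 0.500 kg/ha of compound. After four to five weeks, injury is scored from 0 to 9 relative to a control.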

GALAP (Galium) [6] = assay: Preemergence herbicidal evaluation; format: in vivo, Galium aparine; settings: rated 4-5 weeks after treatment
In short: as §2

ZEAMX (Corn, Field) = assay: Preemergence herbicidal evaluation; format: in vivo, Zea mays; settings: rated 4-5 weeks after treatment
In short: as §2

CYPIR (Rice Flatsedge) = assay: Preemergence weed control under flooded paddy conditions; format: in vivo, Cyperus iria; settings: rated 3-4 weeks after treatment
In short: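 Herbicidal effect is scored visually on a 0-9 scale against an untreated control, three to four weeks after compounds are pipetted into the flood water (1.5 to 3 cm deep) over seeds planted in silt loam at 0.5 cm depth. Rates: about 0.0313 to 0.500 kg/ha.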

CYPSE (Flatsedge) [7] = assay: as above; format: in vivo, Cyperus serotinus; settings: rated 3-4 weeks after treatment
In short: (§3)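 Greenhouse paddy assay. Acetone/water (50/50 v/v) solutions dosed into flood water, equivalent to about 0.0313 to 0.500 kg/ha active ingredient, over seeds planted 0.5 cm deep in silt loam. Score: 0-9 visual, based on stand, vigor, malformation, size and chlorosis, 3 to 4 weeks after treatment.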

[8] = system: SAGPY (Arrowhead (Pygmaea)); assay: as above; format: in vivo, Sagittaria pygmaea; settings: rated 3-4 weeks after treatment
In short: as §3

CYPSE (Flatsedge) [9] = assay: Postemergence weed control under flooded paddy conditions; format: in vivo, Cyperus serotinus; settings: postemergence weeds, 3-4 weeks after treatment
In short: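 Injury ratings (0–9 scale covering stand, vigor, malformation, size, chlorosis and overall appearance versus control) were made three to four weeks after treatment. Test material, about 0.0313 to 0.500 kg/ha a.i. in 50/50 v/v aqueous/acetone, was added to flood water 1.5 to 3 cm deep over 3 to 5 cm weeds and 1.5 to 2.5 leaf rice.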

SMILES: Cn1c(C(F)(F)F)cc(=O)n(-c2cc(N=C3SCC(=O)N3CC(=O)NS(C)(=O)=O)c(Cl)cc2F)c1=O [Compound 38, 2-{{2-Chloro-5-[3,6-dihydro-3-methyl-2,6-dioxo-4-(trifluoromethyl)-1(2H)-pyrimidinyl]-4-fluoro-phenyl}imino}-N-(methylsulfonyl)-4-oxo-3-thiazolidineacetamide]
- Postemergence herbicidal rating AMBEL (AMBEL (Ragweed, Common); Rate 0.0156 kg/ha): 3.0
- Postemergence herbicidal rating AMBEL (AMBEL (Ragweed, Common); Rate 0.0313 kg/ha): 5.0
- Postemergence herbicidal rating AMBEL (AMBEL (Ragweed, Common); Rate 0.0625 kg/ha): 5.0
- Postemergence herbicidal rating AMBEL (AMBEL (Ragweed, Common); Rate 0.1250 kg/ha): 9.0
- Postemergence herbicidal rating AMBEL (AMBEL (Ragweed, Common); Rate 0.2500 kg/ha): 9.0
- Postemergence herbicidal rating CASOB (CASOB (Sicklepod) [1]; Rate 0.0156 kg/ha): 0.0
- Postemergence herbicidal rating CASOB (CASOB (Sicklepod) [1]; Rate 0.0313 kg/ha): 1.0
- Postemergence herbicidal rating CASOB (CASOB (Sicklepod) [1]; Rate 0.0625 kg/ha): 2.0
- Postemergence herbicidal rating CASOB (CASOB (Sicklepod) [1]; Rate 0.1250 kg/ha): 3.0
- Postemergence herbicidal rating CASOB (CASOB (Sicklepod) [1]; Rate 0.2500 kg/ha): 3.0
- Postemergence herbicidal rating CHEAL ([2]; Rate 0.0156 kg/ha): 1.0
- Postemergence herbicidal rating CHEAL ([2]; Rate 0.0313 kg/ha): 3.0
- Postemergence herbicidal rating CHEAL ([2]; Rate 0.0625 kg/ha): 4.0
- Postemergence herbicidal rating CHEAL ([2]; Rate 0.1250 kg/ha): 6.0
- Postemergence herbicidal rating CHEAL ([2]; Rate 0.2500 kg/ha): 9.0
- Postemergence herbicidal rating GALAP (GALAP (Galium) [3]; Rate 0.0156 kg/ha): 0.0
- Postemergence herbicidal rating GALAP (GALAP (Galium) [3]; Rate 0.0313 kg/ha): 1.0
- Postemergence herbicidal rating GALAP (GALAP (Galium) [3]; Rate 0.0625 kg/ha): 3.0
- Postemergence herbicidal rating GALAP (GALAP (Galium) [3]; Rate 0.1250 kg/ha): 3.0
- Postemergence herbicidal rating GALAP (GALAP (Galium) [3]; Rate 0.2500 kg/ha): 8.0
- Postemergence herbicidal rating ECHCG (ECHCG (Barnyardgrass); Rate 0.0156 kg/ha): 0.0
- Postemergence herbicidal rating ECHCG (ECHCG (Barnyardgrass); Rate 0.0313 kg/ha): 2.0
- Postemergence herbicidal rating ECHCG (ECHCG (Barnyardgrass); Rate 0.0625 kg/ha): 2.0
- Postemergence herbicidal rating ECHCG (ECHCG (Barnyardgrass); Rate 0.1250 kg/ha): 5.0
- Postemergence herbicidal rating ECHCG (ECHCG (Barnyardgrass); Rate 0.2500 kg/ha): 9.0
- Postemergence herbicidal rating SETVI (SETVI (Foxtail, Green); Rate 0.0156 kg/ha): 0.0
- Postemergence herbicidal rating SETVI (SETVI (Foxtail, Green); Rate 0.0313 kg/ha): 3.0
- Postemergence herbicidal rating SETVI (SETVI (Foxtail, Green); Rate 0.0625 kg/ha): 5.0
- Postemergence herbicidal rating SETVI (SETVI (Foxtail, Green); Rate 0.1250 kg/ha): 9.0
- Postemergence herbicidal rating SETVI (SETVI (Foxtail, Green); Rate 0.2500 kg/ha): 9.0
- Postemergence herbicidal rating GLXMAW ([4]; Rate 0.0156 kg/ha): 6.5
- Postemergence herbicidal rating GLXMAW ([4]; Rate 0.0313 kg/ha): 6.5
- Postemergence herbicidal rating GLXMAW ([4]; Rate 0.0625 kg/ha): 8.0
- Postemergence herbicidal rating GLXMAW ([4]; Rate 0.1250 kg/ha): 8.5
- Postemergence herbicidal rating GLXMAW ([4]; Rate 0.2500 kg/ha): 8.5
- Postemergence herbicidal rating ORYSAT (ORYSAT (Rice, Tebonnet); Rate 0.0156 kg/ha): 0.5
- Postemergence herbicidal rating ORYSAT (ORYSAT (Rice, Tebonnet); Rate 0.0313 kg/ha): 0.5
- Postemergence herbicidal rating ORYSAT (ORYSAT (Rice, Tebonnet); Rate 0.0625 kg/ha): 2.5
- Postemergence herbicidal rating ORYSAT (ORYSAT (Rice, Tebonnet); Rate 0.1250 kg/ha): 6.0
- Postemergence herbicidal rating ORYSAT (ORYSAT (Rice, Tebonnet); Rate 0.2500 kg/ha): 7.5
- Preemergence herbicidal rating CASOB (CASOB (Sicklepod) [5]; rate 0.0313 kg/ha): 0.0
- Preemergence herbicidal rating CASOB (CASOB (Sicklepod) [5]; rate 0.0625 kg/ha): 0.0
- Preemergence herbicidal rating CASOB (CASOB (Sicklepod) [5]; rate 0.1250 kg/ha): 0.0
- Preemergence herbicidal rating CASOB (CASOB (Sicklepod) [5]; rate 0.2500 kg/ha): 3.0
- Preemergence herbicidal rating GALAP (GALAP (Galium) [6]; rate 0.0313 kg/ha): 0.0
- Preemergence herbicidal rating GALAP (GALAP (Galium) [6]; rate 0.0625 kg/ha): 5.0
- Preemergence herbicidal rating GALAP (GALAP (Galium) [6]; rate 0.1250 kg/ha): 8.0
- Preemergence herbicidal rating GALAP (GALAP (Galium) [6]; rate 0.2500 kg/ha): 9.0
- Preemergence herbicidal rating ZEAMX (ZEAMX (Corn, Field); rate 0.0313 kg/ha): 0.0
- Preemergence herbicidal rating ZEAMX (ZEAMX (Corn, Field); rate 0.0625 kg/ha): 0.0
- Preemergence herbicidal rating ZEAMX (ZEAMX (Corn, Field); rate 0.1250 kg/ha): 0.0
- Preemergence herbicidal rating ZEAMX (ZEAMX (Corn, Field); rate 0.2500 kg/ha): 4.0
- Herbicidal rating CYPIR (CYPIR (Rice Flatsedge); 0.0313 kg/ha): 3.0
- Herbicidal rating CYPIR (CYPIR (Rice Flatsedge); 0.0625 kg/ha): 3.0
- Herbicidal rating CYPIR (CYPIR (Rice Flatsedge); 0.1250 kg/ha): 5.0
- Herbicidal rating CYPIR (CYPIR (Rice Flatsedge); 0.2500 kg/ha): 5.0
- Herbicidal rating CYPSE (CYPSE (Flatsedge) [7]; 0.0313 kg/ha): 0.0
- Herbicidal rating CYPSE (CYPSE (Flatsedge) [7]; 0.0625 kg/ha): 0.0
- Herbicidal rating CYPSE (CYPSE (Flatsedge) [7]; 0.1250 kg/ha): 0.0
- Herbicidal rating CYPSE (CYPSE (Flatsedge) [7]; 0.2500 kg/ha): 3.0
- Herbicidal rating SAGPY ([8]; 0.0313 kg/ha): 0.0
- Herbicidal rating SAGPY ([8]; 0.0625 kg/ha): 3.0
- Herbicidal rating SAGPY ([8]; 0.1250 kg/ha): 4.0
- Herbicidal rating SAGPY ([8]; 0.2500 kg/ha): 9.0
- Herbicidal rating CYPSE (CYPSE (Flatsedge) [9]; rate 0.0313 kg/ha): 0.0
- Herbicidal rating CYPSE (CYPSE (Flatsedge) [9]; rate 0.0625 kg/ha): 0.0
- Herbicidal rating CYPSE (CYPSE (Flatsedge) [9]; rate 0.1250 kg/ha): 0.0
- Herbicidal rating CYPSE (CYPSE (Flatsedge) [9]; rate 0.2500 kg/ha): 3.0
